Test results reported in PubChem BioAssay AID1259411 (Chemical Carcinogenesis Research Information System (CCRIS), 2018).
Calls of active or inactive are those of the source. No rule for the calls is given here.

System: rodent carcinogenicity bioassays, tumor incidence
Test: CCRIS carcinogenicity studies
How it was run: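 Archive of carcinogenicity, mutagenicity, tumor promotion and tumor inhibition results drawn from journals, NCI reports and other sources, expert-reviewed; covers 1985-2011 and is no longer updated.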

COP(=O)(OC)OC=C(Cl)Cl
carcinogen call (Species: MOUSE, Strain/Sex: B6C3F1/FEMALE, Route: GAVAGE, Dose: 0, 20, 40 MG/KG IN CORN OIL 5 D/WK FOR 103 WK (STUDY DURATION: 104 WK), Dose: 0, 20, 40 MG/KG IN CORN OIL 5 D/WK FOR 103 WK (STUDY DURATION: 104 WK), Tumor Site: Type of Lesion: FORESTOMACH: CARCINOMA, SQUAMOUS CELL PAPILLOMA): active; positive | carcinogen call (Species: MOUSE, Strain/Sex: B6C3F1/FEMALE, Route: GAVAGE, Dose: 0, 20, 40 MG/KG IN CORN OIL 5 D/WK FOR 103 WK (STUDY DURATION: 105 WK), Dose: 0, 20, 40 MG/KG IN CORN OIL 5 D/WK FOR 103 WK (STUDY DURATION: 105 WK), Tumor Site: Type of Lesion: FORESTOMACH: SQUAMOUS PAPILLOMA, SQUAMOUS CELL PAPILLOMA OR CARCINOMA): active; positive | carcinogen call (Species: MOUSE, Strain/Sex: B6C3F1/FEMALE, Route: ORAL, Dose: 0, 317, 635 PPM IN DIET, TWA, Dose: 0, 317, 635 PPM IN DIET, TWA): inactive; negative | carcinogen call (Species: MOUSE, Strain/Sex: B6C3F1/MALE, Route: GAVAGE, Dose: 0, 10, 20 MG/KG IN CORN OIL 5 D/WK FOR 103 WK (STUDY DURATION: 104 WK), Dose: 0, 10, 20 MG/KG IN CORN OIL 5 D/WK FOR 103 WK (STUDY DURATION: 104 WK), Tumor Site: Type of Lesion: FORESTOMACH: SQUAMOUS CELL PAPILLOMA): active; positive | carcinogen call (Species: MOUSE, Strain/Sex: B6C3F1/MALE, Route: GAVAGE, Dose: 0, 10, 20 MG/KG IN CORN OIL 5 D/WK FOR 103 WK (STUDY DURATION: 105 WK), Dose: 0, 10, 20 MG/KG IN CORN OIL 5 D/WK FOR 103 WK (STUDY DURATION: 105 WK), Tumor Site: Type of Lesion: FORESTOMACH: SQUAMOUS PAPILLOMA): active; positive | carcinogen call (Species: MOUSE, Strain/Sex: B6C3F1/MALE, Route: ORAL, Dose: 0, 317, 635 PPM IN DIET, TWA, Dose: 0, 317, 635 PPM IN DIET, TWA): inactive; negative | carcinogen call (Species: RAT, Strain/Sex: BDIX/BLN/FEMALE, Route: INTRAGASTRIC, Dose: 0, 0.1 MG IN 0.2 ML WATER 2/WK FOR 60 WK (STUDY DURATION: 111 WK)): inactive; negative | carcinogen call (Species: RAT, Strain/Sex: BDIX/BLN/FEMALE, Route: INTRAGASTRIC, Dose: 0, 0.1 MG IN 0.2 ML WATER 3/WK FOR 60 WK (STUDY DURATION: 111 WK)): inactive; negative | carcinogen call (Species: RAT, Strain/Sex: BDIX/BLN/MALE, Route: INTRAGASTRIC, Dose: 0, 0.1 MG IN 0.2 ML WATER 2/WK FOR 60 WK (STUDY DURATION: 111 WK)): inactive; negative | carcinogen call (Species: RAT, Strain/Sex: BDIX/BLN/MALE, Route: INTRAGASTRIC, Dose: 0, 0.1 MG IN 0.2 ML WATER 3/WK FOR 60 WK (STUDY DURATION: 111 WK)): inactive; negative | carcinogen call (Species: RAT, Strain/Sex: F344/FEMALE, Route: GAVAGE, Dose: 0, 4, 8 MG/KG IN CORN OIL 5 D/WK FOR 103 WK (STUDY DURATION: 104 WK), Dose: 0, 4, 8 MG/KG IN CORN OIL 5 D/WK FOR 103 WK (STUDY DURATION: 104 WK), Tumor Site: Type of Lesion: PANCREAS: ACINAR CELL ADENOMA, HEMATOPOIETIC SYSTEM: MONONUCLEAR CELL LEUKEMIA, MAMMARY GLAND: FIBROADENOMA, CARCINOMA, Tumor Site: Type of Lesion: PANCREAS: ACINAR CELL ADENOMA, HEMATOPOIETIC SYSTEM: MONONUCLEAR CELL LEUKEMIA, MAMMARY GLAND: FIBROADENOMA, CARCINOMA): active; positive | carcinogen call (Species: RAT, Strain/Sex: F344/FEMALE, Route: GAVAGE, Dose: 0, 4, 8 MG/KG IN CORN OIL 5 D/WK FOR 103 WK (STUDY DURATION: 105 WK), Dose: 0, 4, 8 MG/KG IN CORN OIL 5 D/WK FOR 103 WK (STUDY DURATION: 105 WK), Tumor Site: Type of Lesion: PANCREAS: ADENOMA, MAMMARY GLAND: FIBROADENOMA): equivocal | carcinogen call (Species: RAT, Strain/Sex: F344/MALE, Route: GAVAGE, Dose: 0, 4, 8 MG/KG IN CORN OIL 5 D/WK FOR 103 WK (STUDY DURATION: 104 WK), Dose: 0, 4, 8 MG/KG IN CORN OIL 5 D/WK FOR 103 WK (STUDY DURATION: 104 WK), Tumor Site: Type of Lesion: PANCREAS: ACINAR CELL ADENOMA, HEMATOPOIETIC SYSTEM: MONONUCLEAR CELL LEUKEMIA): active; positive | carcinogen call (Species: RAT, Strain/Sex: F344/MALE, Route: GAVAGE, Dose: 0, 4, 8 MG/KG IN CORN OIL 5 D/WK FOR 103 WK (STUDY DURATION: 105 WK), Dose: 0, 4, 8 MG/KG IN CORN OIL 5 D/WK FOR 103 WK (STUDY DURATION: 105 WK), Tumor Site: Type of Lesion: PANCREAS: ADENOMA, HEMATOPOIETIC SYSTEM: MONONUCLEAR CELL LEUKEMIA): active; positive | carcinogen call (Species: RAT, Strain/Sex: OSBORNE-MENDEL/FEMALE, Route: ORAL, Dose: 0, 318, 635 PPM IN DIET, TWA, Dose: 0, 318, 635 PPM IN DIET, TWA): inactive; negative | carcinogen call (Species: RAT, Strain/Sex: OSBORNE-MENDEL/MALE, Route: ORAL, Dose: 0, 150, 326 PPM IN DIET, TWA, Dose: 0, 150, 326 PPM IN DIET, TWA): inactive; negative

C/C=C/c1ccc(OC)cc1
carcinogen call (Species: MOUSE, Strain/Sex: B6C3F1/MALE, Route: INTRAPERITONEAL, Dose: 0, 0.5 UMOL/G BW ONCE (STUDY DURATION: 10-11 MONTHS)): inactive; negative | carcinogen call (Species: MOUSE, Strain/Sex: CD-1/FEMALE, Route: DERMAL, Dose: 0, 5 UMOL 1X/WK FOR 3 WK BEGINNING 24 HR POST FIRST TPA DOSE (2.5 UG IN 0.1 ML ACETONE), FOLLOWED BY 2.5 UG TPA IN 0.1 M, Tumor Site: Type of Lesion: SKIN: PAPILLOMA): inactive; negative | carcinogen call (Species: RAT, Strain/Sex: SPRAGUE-DAWLEY/FEMALE, Route: ORAL, Dose: 0, 0.25, 0.5, 1% IN DIET FOR 117 WK (STUDY DURATION: 121 WK), Dose: 0, 0.25, 0.5, 1% IN DIET FOR 117 WK (STUDY DURATION: 121 WK), Tumor Site: Type of Lesion: LIVER: HEPTOCELLULAR CARCINOMA): active; positive | carcinogen call (Species: RAT, Strain/Sex: SPRAGUE-DAWLEY/MALE, Route: ORAL, Dose: 0, 0.25, 0.5, 1.0% IN DIET FOR 117 WK (STUDY DURATION: 121 WK), Dose: 0, 0.25, 0.5, 1.0% IN DIET FOR 117 WK (STUDY DURATION: 121 WK)): inactive; negative

CCOC(=O)NO
carcinogen call (Species: MOUSE, Strain/Sex: C57BL, Route: INTRAPERITONEAL, Dose: 1.18 MG/G 10X AT WEEKLY INTERVALS, Tumor Site: Type of Lesion: THYMUS GLAND: LYMPHOSARCOMA, LUNG: ADENOMA): active; positive | carcinogen call (Species: MOUSE, Strain/Sex: STRAIN-A/FEMALE, Route: INTRAPERITONEAL, Dose: 4000 NMOL/G, Tumor Site: Type of Lesion: LUNG: ADENOMA): active; positive

O=[N+]([O-])c1ccc2ccc3c4ccccc4c([N+](=O)[O-])c4ccc1c2c43
carcinogen call (Species: RAT, Strain/Sex: F344/MALE, Route: SUBCUTANEOUS IMPLANT, Dose: 0, 8, 40, 200, 1000 UG IN 50 µL BEESWAX/TRICAPRYLIN IMPLANTED FOR UP TO 45 WK (STUDY DURATION: 45 WK), Dose: 0, 8, 40, 200, 1000 UG IN 50 µL BEESWAX/TRICAPRYLIN IMPLANTED FOR UP TO 45 WK (STUDY DURATION: 45 WK), Tumor Site: Type of Lesion: IMPLANT SITE: TUMOR): active; positive | carcinogen call (Species: RAT, Strain/Sex: F344/MALE, Route: SUBCUTANEOUS, Dose: 0, 8, 40, 200, 1000 UG SUSPENDED IN BEESWAX/TRICAPRYLIN (1:1) ONCE (STUDY DURATION: LIFETIME), Dose: 0, 8, 40, 200, 1000 UG SUSPENDED IN BEESWAX/TRICAPRYLIN (1:1) ONCE (STUDY DURATION: LIFETIME), Tumor Site: Type of Lesion: SUBCUTANEOUS TISSUE: TUMOR): active; positive

CN(N)C=O
carcinogen call (Species: MOUSE, Strain/Sex: SWISS/FEMALE, Route: ORAL, Dose: 0, 0.0078% SOLUTION IN DRINKING WATER STARTING AT 6 WK OF AGE FOR LIFE FOR AVERAGE DAILY INTAKE OF 0 OR 0.80 MG (STUDY D, Tumor Site: Type of Lesion: LIVER: HEPATOMA OR CARCINOMA, LUNG: ADENOMA OR ADENOCARCINOMA): active; positive | carcinogen call (Species: MOUSE, Strain/Sex: SWISS/MALE, Route: ORAL, Dose: 0, 0.0078% SOLUTION IN DRINKING WATER STARTING AT 6 WK OF AGE FOR LIFE FOR AVERAGE DAILY INTAKE OF 0 OR 0.99 MG (STUDY D, Tumor Site: Type of Lesion: LIVER: HEPATOMA OR CARCINOMA, LUNG: ADENOMA OR ADENOCARCINOMA, GALLBLADDER: ADENOMA, BILE DUCT: CHOLANGIOMA OR CHOLANGIO, Tumor Site: Type of Lesion: LIVER: HEPATOMA OR CARCINOMA, LUNG: ADENOMA OR ADENOCARCINOMA, GALLBLADDER: ADENOMA, BILE DUCT: CHOLANGIOMA OR CHOLANGIO): active; positive
